Results published in patent publication US9221827B2, “Antimicrobial compounds and methods of making and using the same” (Melinta Therapeutics, Inc., priority 2011, dated 2015).

Test system: Escherichia coli strain ATCC25922
Test: standard microdilution assay to determine minimum inhibitory concentrations (MICs)
Assay type: cell-based
Method in brief: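 Broth microdilution per CLSI (M7-A8/M100-S20), 100 μl final volume, with reference-strain quality control; MIC is the lowest inhibitory concentration. Scored "+"/"−" against a 16 micrograms/ml cutoff, "N/A" where unavailable.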

[1] = Escherichia coli strain ATCC25922, microdilution
[2] = Escherichia coli strain ATCC25922, standard microdilution assay

## C[C@H](N)CCCc1cc(SC(F)(F)F)c(F)c(-c2cc3cn(-c4ccc([C@H](C)NCCCNC(=N)N)cc4)c(=O)nc3[nH]2)c1 [Compound 471]
[1]
  E. coli ATCC25922 MIC: + (a “+” indicates that the compound has an MIC value of 16 micrograms/ml or less)

## N=C(N)NCCCNCc1ccc(-n2cc3cc(-c4cc(CS(=O)(=O)CCN)cc(OC(F)(F)F)c4)[nH]c3nc2=O)cc1 [Compound 16]
[1]
  E. coli ATCC25922 MIC: + (a “+” indicates that the compound has an MIC value of 16 micrograms/ml or less)

## CC(N)CC=Cc1cc(Cl)c(F)c(-c2cc3cn(-c4ccc(C(C)NCCCNC(=N)N)cc4)c(=O)nc3[nH]2)c1 (stereo not drawn) [Compound 343]
[2]
  E. coli ATCC25922 MIC: + (a “+” indicates that the compound has an MIC value of 16 micrograms/ml or less)

## CCc1cc(CCCCNC(=N)N)cc(-c2cc3cn(-c4ccc(CNCCCNC(=N)N)cc4)c(=O)nc3[nH]2)c1Cl [Compound 285]
[1]
  E. coli ATCC25922 MIC: + (a “+” indicates that the compound has an MIC value of 16 micrograms/ml or less)

## C[C@H](NCCCNC(=N)N)c1ccc(-n2cc3cc(-c4cc(C[C@H]5C[C@@H](CN)C5)cc(SC(F)(F)F)c4)[nH]c3nc2=O)cc1 [Compound 402]
[2]
  E. coli ATCC25922 MIC: + (a “+” indicates that the compound has an MIC value of 16 micrograms/ml or less)

## COC[C@H](N)CCCc1cc(SC(F)(F)F)cc(-c2cc3cn(-c4ccc(CNCCCNC(=N)N)cc4)c(=O)nc3[nH]2)c1 [Compound 424]
[2]
  E. coli ATCC25922 MIC: + (a “+” indicates that the compound has an MIC value of 16 micrograms/ml or less)

## CC(NCCCNC(=N)N)c1ccc(-n2cc3cc(-c4cc(C5CCC(CN)CC5)cc(C(F)(F)F)c4)[nH]c3nc2=O)cc1 (mixture of isomers) [Compound 430]
[2]
  E. coli ATCC25922 MIC: + (a “+” indicates that the compound has an MIC value of 16 micrograms/ml or less)

## CC(N)CCCc1cc(OC(F)(F)F)cc(-c2cc3cn(-c4ccc(C(C)N)cc4)c(=O)nc3[nH]2)c1 (stereo not drawn) [Compound 356]
[2]
  E. coli ATCC25922 MIC: − (a “−” indicates that the compound has an MIC value greater than 16 micrograms/ml)

## CCc1cc(CCCCN)cc(-c2cc3cn(-c4ccc(CNCCCNC(=N)N)cc4)c(=O)nc3[nH]2)c1C(F)(F)F [Compound 233]
[1]
  E. coli ATCC25922 MIC: + (a “+” indicates that the compound has an MIC value of 16 micrograms/ml or less)

## N=C(N)NCCCNCc1ccc(-c2c[nH]c(NC(=O)Nc3c(OCCCN)cccc3C3CC3)nc2=O)cc1 [Compound 189]
[1]
  E. coli ATCC25922 MIC: − (a “−” indicates that the compound has an MIC value greater than 16 micrograms/ml)

## CC(N)COC(C)c1cc(-c2cc3cn(-c4ccc([C@H](C)NCCCNC(=N)N)cc4)c(=O)nc3[nH]2)cc(C(F)(F)F)c1 (stereo partly drawn) [Compound 478]
[1]
  E. coli ATCC25922 MIC: + (a “+” indicates that the compound has an MIC value of 16 micrograms/ml or less)

## N=C(N)NCCCNCc1ccc(-n2cc3cc(-c4cc(COCCN)cc(OC(F)(F)F)c4)[nH]c3nc2=O)cc1 [Compound 36]
[1]
  E. coli ATCC25922 MIC: + (a “+” indicates that the compound has an MIC value of 16 micrograms/ml or less)

## C[C@H](N)CCCc1cc(SC(F)F)cc(-c2cc3cn(-c4ccc([C@H](C)NCCCNC(=N)N)cc4)c(=O)nc3[nH]2)c1 [Compound 308]
[1]
  E. coli ATCC25922 MIC: + (a “+” indicates that the compound has an MIC value of 16 micrograms/ml or less)

## C[C@H](CCNC(=N)N)NCc1ccc(-n2cc3cc(-c4cc(CC5CC(N)C5)cc(Cl)c4F)[nH]c3nc2=O)cc1 (stereo partly drawn) [Compound 334]
[2]
  E. coli ATCC25922 MIC: + (a “+” indicates that the compound has an MIC value of 16 micrograms/ml or less)

## C[C@H](NCCCNC(=N)N)c1ccc(-n2cc3cc(-c4cc(CO[C@@H](C)CN)cc(SC(F)(F)F)c4)[nH]c3nc2=O)cc1 [Compound 327]
[1]
  E. coli ATCC25922 MIC: + (a “+” indicates that the compound has an MIC value of 16 micrograms/ml or less)

## CC(NCCCNC(=N)N)c1ccc(-n2cc3cc(-c4cc(CC5CCC(N)C5)cc(SC(F)(F)F)c4)[nH]c3nc2=O)cc1 (mixture of isomers) [Compound 420]
[2]
  E. coli ATCC25922 MIC: + (a “+” indicates that the compound has an MIC value of 16 micrograms/ml or less)

## CCc1cc(CCCC(C)N)cc(-c2cc3cn(-c4ccc(CNCCCNC(=N)N)cc4)c(=O)nc3[nH]2)c1F (stereo not drawn) [Compound 301]
[1]
  E. coli ATCC25922 MIC: + (a “+” indicates that the compound has an MIC value of 16 micrograms/ml or less)

## CC(NCCCNC(=N)N)c1ccc(-n2cc3cc(-c4cc(CCC5(CN)CC5)cc(Cl)c4F)[nH]c3nc2=O)cc1 (stereo not drawn) [Compound 272]
[1]
  E. coli ATCC25922 MIC: + (a “+” indicates that the compound has an MIC value of 16 micrograms/ml or less)

## C[C@H](NCCCNC(=N)N)c1ccc(-n2cc3cc(-c4ccc(C(NC5CN(C(=N)N)C5)C(F)(F)F)cc4)[nH]c3nc2=O)cc1 (stereo partly drawn) [Compound 227]
[1]
  E. coli ATCC25922 MIC: + (a “+” indicates that the compound has an MIC value of 16 micrograms/ml or less)

## Cc1c(-c2cc3cn(-c4ccc(CNCCCNC(=N)N)cc4)c(=O)nc3[nH]2)cc(CCC[C@H](C)N)cc1C(C)C [Compound 446]
[2]
  E. coli ATCC25922 MIC: + (a “+” indicates that the compound has an MIC value of 16 micrograms/ml or less)

## N#Cc1cc(CCCCN)cc(-c2cc3cn(-c4ccc(CNCCCNC(=N)N)cc4)c(=O)nc3[nH]2)c1F [Compound 122]
[1]
  E. coli ATCC25922 MIC: + (a “+” indicates that the compound has an MIC value of 16 micrograms/ml or less)

## CC(N)CCCc1cc(-c2cc3cn(-c4ccc(C(C)NCCCNC(=N)N)cc4)c(=O)nc3[nH]2)c(F)c(Cl)c1F (stereo not drawn) [Compound 493]
[1]
  E. coli ATCC25922 MIC: + (a “+” indicates that the compound has an MIC value of 16 micrograms/ml or less)

## COC(=O)CC(NCCCNC(=N)N)c1ccc(-n2cc3cc(-c4cc(CCCC(C)N)cc(Cl)c4F)[nH]c3nc2=O)cc1 (stereo not drawn) [Compound 487]
[1]
  E. coli ATCC25922 MIC: + (a “+” indicates that the compound has an MIC value of 16 micrograms/ml or less)

## C[C@H](N)CCCc1cc(-c2cc3cn(-c4ccc([C@H](C)NCCCNC(=N)N)cc4)c(=O)nc3[nH]2)cc(F)c1F [Compound 464]
[2]
  E. coli ATCC25922 MIC: + (a “+” indicates that the compound has an MIC value of 16 micrograms/ml or less)

## N=C(N)NCCCNCc1ccc(-n2cc3cc(-c4cc(CCCCN)cc(OC(F)(F)F)c4)[nH]c3nc2=O)cc1 [Compound 221]
[1]
  E. coli ATCC25922 MIC: + (a “+” indicates that the compound has an MIC value of 16 micrograms/ml or less)

## CN(CCCNC(=N)N)Cc1ccc(-n2cc3cc(-c4cc(CCCCN)cc(Cl)c4F)[nH]c3nc2=O)cc1 [Compound 378]
[2]
  E. coli ATCC25922 MIC: + (a “+” indicates that the compound has an MIC value of 16 micrograms/ml or less)

## CCC[C@H](NCCCNC(=N)N)c1ccc(-n2cc3cc(-c4cc(CCC[C@H](C)N)cc(C(F)(F)F)c4)[nH]c3nc2=O)cc1 [Compound 427]
[2]
  E. coli ATCC25922 MIC: + (a “+” indicates that the compound has an MIC value of 16 micrograms/ml or less)

## CC(C)(CN)CCc1cc(Cl)c(F)c(-c2cc3cn(-c4ccc(CNCCCNC(=N)N)cc4)c(=O)nc3[nH]2)c1 [Compound 243]
[1]
  E. coli ATCC25922 MIC: + (a “+” indicates that the compound has an MIC value of 16 micrograms/ml or less)

## CC(NCCCNC(=N)N)c1ccc(-n2cc3cc(-c4cc(OC(F)(F)F)cc(C5CCC(CN)O5)c4)[nH]c3nc2=O)cc1 (stereo not drawn) [Compound 438]
[2]
  E. coli ATCC25922 MIC: + (a “+” indicates that the compound has an MIC value of 16 micrograms/ml or less)

## C[C@H](N)CCCc1cc(OC(F)(F)F)cc(-c2cc3cn(-c4ccc([C@H](C)NCCCNC(=N)N)cc4)c(=O)nc3[nH]2)c1 [Compound 230]
[1]
  E. coli ATCC25922 MIC: + (a “+” indicates that the compound has an MIC value of 16 micrograms/ml or less)

## C[C@H](NCCCNC(=N)N)c1ccc(-n2cc3cc(-c4cc(CC[C@@H](C)N)cc(Cl)c4F)[nH]c3nc2=O)cc1 [Compound 411]
[2]
  E. coli ATCC25922 MIC: + (a “+” indicates that the compound has an MIC value of 16 micrograms/ml or less)

## NCCCCc1cc(F)c(Cl)c(-c2cc3cn(-c4ccc(CNCCCN=C(N)N)c(F)c4)c(=O)nc3[nH]2)c1 [Compound 71]
[1]
  E. coli ATCC25922 MIC: + (a “+” indicates that the compound has an MIC value of 16 micrograms/ml or less)

## COc1cccc(OCCCN)c1NC(=O)Nc1nc(=O)c(-c2ccc(CNCCCNC(=N)N)cc2)c[nH]1 [Compound 185]
[1]
  E. coli ATCC25922 MIC: − (a “−” indicates that the compound has an MIC value greater than 16 micrograms/ml)

## N=C(N)NCCCNCc1ccc(-n2cc3cc(-c4cc(CC5CC(N)C5)cc(C(F)(F)F)c4)[nH]c3nc2=O)cc1 (stereo not drawn) [Compound 324]
[1]
  E. coli ATCC25922 MIC: + (a “+” indicates that the compound has an MIC value of 16 micrograms/ml or less)

## Cc1cc(CCC[C@H](C)N)cc(-c2cc3cn(-c4ccc(CNCCCNC(=N)N)cc4)c(=O)nc3[nH]2)c1Cl [Compound 313]
[1]
  E. coli ATCC25922 MIC: + (a “+” indicates that the compound has an MIC value of 16 micrograms/ml or less)

## CC(N)C(C)OCc1cc(OC(F)(F)F)cc(-c2cc3cn(-c4ccc(CNCCCNC(=N)N)cc4)c(=O)nc3[nH]2)c1 (stereo not drawn) [Compound 418]
[2]
  E. coli ATCC25922 MIC: + (a “+” indicates that the compound has an MIC value of 16 micrograms/ml or less)

## C[C@H](N)C/C=C/c1cc(Cl)c(F)c(-c2cc3cn(-c4ccc(CNCCCNC(=N)N)cc4)c(=O)nc3[nH]2)c1 [Compound 312]
[1]
  E. coli ATCC25922 MIC: + (a “+” indicates that the compound has an MIC value of 16 micrograms/ml or less)

## C[C@H](NCCCNC(=N)N)c1ccc(-n2cc3cc(-c4cc(CC[C@@H](C)N)cc(C(F)(F)F)c4)[nH]c3nc2=O)cc1 [Compound 410]
[2]
  E. coli ATCC25922 MIC: + (a “+” indicates that the compound has an MIC value of 16 micrograms/ml or less)

## NC(N)=NCCCNCc1ccc(-n2cc3cc(-c4cccc(CCCO)c4)[nH]c3nc2=O)cc1 [Compound 66]
[1]
  E. coli ATCC25922 MIC: − (a “−” indicates that the compound has an MIC value greater than 16 micrograms/ml)

## N=C(N)NCCCNCc1ccc(-n2cc3cc(-c4cc(OC(F)(F)F)cc(C(O)CCCN)c4)[nH]c3nc2=O)cc1 (stereo not drawn) [Compound 42]
[1]
  E. coli ATCC25922 MIC: + (a “+” indicates that the compound has an MIC value of 16 micrograms/ml or less)

## CC(N)CCCc1cc(-c2cc3cn(-c4ccc(C(CC(=O)O)NCCCNC(=N)N)cc4)c(=O)nc3[nH]2)cc(C(F)(F)F)c1 (stereo not drawn) [Compound 490]
[1]
  E. coli ATCC25922 MIC: − (a “−” indicates that the compound has an MIC value greater than 16 micrograms/ml)

## C[C@H](N)CCCc1cc(-c2cc3cn(-c4ccc([C@H](C)NCCCNC(=N)N)cc4)c(=O)nc3[nH]2)cc2c1CCC2 [Compound 393]
[2]
  E. coli ATCC25922 MIC: + (a “+” indicates that the compound has an MIC value of 16 micrograms/ml or less)
